US11674965B2, “Method for preparing and analyzing fluorescent compounds in plasma” (MediBeacon, Inc., priority 2017, dated 2023)

Assays:
[1] = cited from earlier work
[2] = Pharmacokinetic analysis of MB-102 in plasma of clinical study participants, iohexol co-dosed as reference marker; format: in vivo, human
Description: (§1) For the samples being analyzed by direct dilution, 10 μL of plasma sample (thawed to room temperature and mixed thoroughly) was diluted with 990 μL 1×PBS, mixed thoroughly for about 10 minutes, and centrifuged at 1000 rpm for 2 minutes. It was directly analyzed by HPLC.
Analyses were performed on a Waters Acquity UPLC H Class Chromatography System, equipped with column heater, sample heater/cooler, vacuum degasser, autosampler, fluorescence detector, and pump capable of delivering a binary gradient. An HPLC analytical column, Phenomenex Luna C18 (2), 4.6×250 mm, 5 μm, 100 Å (Phenomenex, Cat. No. 00G-4252-E0, S/N H15-133556), and a Security Guard Cartridge C18, 4×3 mm ID, 5 μm (Phenomenex, Cat. No. KJ0-4282) were used for the analysis. The Waters Empower 3 software equipped with the UPLC system was used for assay setup, analysis monitoring, and data processing. Two mobile phases, Mobile Phase A: 0.1% Trifluoroacetic acid in water (Fisher, Optima® Grade) and Mobile Phase B: 0.1% Trifluoroacetic acid in acetonitrile (Fisher Scientific, Optima® Grade) were used. […]
In support of the clinical studies to evaluate the utility of MB-102 for kidney function monitoring via transdermal fluorescence sensing, the plasma samples were prepared from blood samples collected at 0, 5, 10, 15, 30, 60, 90, 120, 180, 240, 300, 360, 480, 600, and 720 minutes of each study participant. […]

[3] = Freeze/thaw stability of MB-102 in plasma samples (three cycles, −80° C. to room temperature), HPLC with fluorescence detection; format: physicochemical, human; details: for % Recovered / Mean Concentration: 3 Freeze/Thaw cycles
Description: (§2) For sample preparation by direct dilution, calibration standards containing 0.4, 1.0, 2.0, 4.0, 10.0, 16.0, 40.0, 100.0, 200.0, 400.0 ng/mL and quality controls at low, mid, and high level of MB-102 were prepared in 1% human plasma in PBS on the day of the validation study or sample analysis. The MB-102 dosing solution (18.6 mg/mL) used in the clinical study was diluted 1/100 first with 1% human plasma in PBS to form a stock solution of 186 μg/mL MB-102. This stock solution is diluted further with 1% human plasma in PBS to form a calibration standard working stock of 2000 ng/mL MB-102 for preparation of calibration standards. A QC working stock at (300 ng/mL) was also prepared from the 186 μg/mL MB-102 stock by dilution with 1% plasma in PBS. The low, mid, and high levels of quality controls were prepared from this QC working stock by dilution with 1% human plasma in PBS.
as §1
(§3) Analyses were performed on a Waters Acquity UPLC H Class Chromatography System, equipped with column heater, sample heater/cooler, vacuum degasser, autosampler, fluorescence detector, and pump capable of delivering a binary gradient. An HPLC analytical column, Phenomenex Luna C18 (2), 4.6×250 mm, 5 μm, 100 Å (Phenomenex, Cat. No. 00G-4252-E0, S/N H15-133556), and a Security Guard Cartridge C18, 4×3 mm ID, 5 μm (Phenomenex, Cat. No. KJ0-4282) were used for the analysis. The Waters Empower 3 software equipped with the UPLC system was used for assay setup, analysis monitoring, and data processing. Two mobile phases, Mobile Phase A: 0.1% Trifluoroacetic acid in water (Fisher, Optima® Grade) and Mobile Phase B: 0.1% Trifluoroacetic acid in acetonitrile (Fisher Scientific, Optima® Grade) were used. The column temperature was set at 30° C., the autosampler temperature was set at 5° C., the excitation wavelength was set at 434 nm and the detection/emission wavelength was set at 556 nm. The counting rate was set at 5 point/sec; the PMT gain was set at 50; the flow cell temperature was ambient; the injection volume was 10 μL. MB-102 elutes at about 3.6 minutes using the gradient shown.
(§4) Using this HPLC method and sample preparation described herein, a validation study was carried out to determine the precision, accuracy, linearity, reproducibility, plasma and sample solution stability, freeze-thaw stability, lowest limits of quantitation, and specificity. The acceptance criterion was ±15% data deviation from normal values excepted at the lowest limit of quantitation (LLOQ) where it was set at ±20%. Samples were analyzed both in-house and at a GMP contract lab to ensure both the validity of the method and accuracy of the results.
(§5) MB-102 stability during sample handling upon long term storage of plasma samples (frozen at −80° C.) and short-term storage (bench top ambient temperature with/without light exposure, and 2-8° C.) of plasma solution was evaluated. Plasma samples were tested for three freeze/thaw cycles (−80° C. to room temperature). The stability of MB-102 in plasma solution at room temperature with/without light exposure, at 2-8° C., and at auto-sampler temperature (5° C.) was evaluated for time intervals of 24 and 48 hours.

[4] = Short-term stability of MB-102 in plasma solution (1% plasma/PBS) at 4° C. or room temperature with/without light, HPLC with fluorescence detection; format: physicochemical, human
Description: as §2, §1, §3, §4, §5

[5] = QCs stored at 4° C. for 48 hours, MB-102 3.7 ng/mL
[6] = QCs stored at 4° C. for 48 hours, MB-102 37.9 ng/mL
[7] = QCs stored at 4° C. for 48 hours, MB-102 372.6 ng/mL
[8] = QCs stored at RT with light, MB-102 3.7 ng/mL
[9] = QCs stored at RT with light, MB-102 37.9 ng/mL
[10] = QCs stored at RT with light, MB-102 372.6 ng/mL
[11] = QCs stored at RT without light, MB-102 3.7 ng/mL
[12] = QCs stored at RT without light, MB-102 37.9 ng/mL
[13] = QCs stored at RT without light, MB-102 372.6 ng/mL
[14] = Sample solution at 4° C. for 48 hours, MB-102 1.76 ng/mL
[15] = Sample solution at 4° C. for 48 hours, MB-102 8.81 ng/mL
[16] = Sample solution at 4° C. for 48 hours, MB-102 61.87 ng/mL

CC(=O)N(CC(O)CO)c1c(I)c(C(=O)NCC(O)CO)c(I)c(C(=O)NCC(O)CO)c1I (centres unmarked) [Iohexol, iohexol]
metabolism ([1]; patient): not metabolized
route of elimination ([1]; without tubular renal secretion or reabsorption): entirely eliminated by simple glomerular filtration

Nc1nc(C(=O)N[C@H](CO)C(=O)O)c(N)nc1C(=O)N[C@H](CO)C(=O)O [MB-102, (2R,2′R)-2,2′-((3,6-diaminopyrazine-2,5-dicarbonyl)bis(azanediyl))bis(3-hydroxypropanoic acid)]
clearance rate ([2]; 12 subjects, FIG. 7): varies among patients
clearance rate compared with iohexol ([2]; three subjects, iohexol co-dosed, FIGS. 8a-8c): parallel to that of iohexol
% Recovered ([3]; MB-102 1.76 ng/mL): 101.7%
Mean Concentration ([3]; MB-102 1.76 ng/mL): 1.79 ng/mL
% Recovered ([3]; MB-102 8.81 ng/mL): 100.0%
Mean Concentration ([3]; MB-102 8.81 ng/mL): 8.81 ng/mL
% Recovered ([3]; MB-102 61.87 ng/mL): 100.8%
Mean Concentration ([3]; MB-102 61.87 ng/mL): 62.34 ng/mL
stability over freeze/thaw cycles ([3]; three freeze/thaw cycles, plasma at −80° C.): very stable
% Recovered [4, 5]: 101.1%
Mean Concentration [4, 5]: 3.74 ng/mL
% Recovered [4, 6]: 99.1%
Mean Concentration [4, 6]: 37.55 ng/mL
% Recovered [4, 7]: 100.2%
Mean Concentration [4, 7]: 373.50 ng/mL
% Recovered [4, 8]: 101.6%
Mean Concentration [4, 8]: 3.76 ng/mL
% Recovered [4, 9]: 96.0%
Mean Concentration [4, 9]: 36.40 ng/mL
% Recovered [4, 10]: 97.9%
Mean Concentration [4, 10]: 364.59 ng/mL
% Recovered [4, 11]: 104.6%
Mean Concentration [4, 11]: 3.87 ng/mL
% Recovered [4, 12]: 98.0%
Mean Concentration [4, 12]: 37.15 ng/mL
% Recovered [4, 13]: 100.0%
Mean Concentration [4, 13]: 372.58 ng/mL
% Recovered [4, 14]: 99.4%
Mean Concentration [4, 14]: 1.75 ng/mL
% Recovered [4, 15]: 98.3%
Mean Concentration [4, 15]: 8.66 ng/mL
% Recovered [4, 16]: 98.3%
Mean Concentration [4, 16]: 60.84 ng/mL
degradation of MB-102 ([4]; solution stored at room temperature with light for 48 hours): 1-2%
sample solution stability ([4]; stored at 4° C. for up to 48 hours): very stable
sample solution stability ([4]; stored at room temperature without light for up to 48 hours): very stable
